From PMC9732821, “Neurotrophic Activity and Its Modulation by Zinc Ion of a Dimeric Peptide Mimicking the Brain-Derived Neurotrophic Factor N-Terminal Region” (ACS Chemical Neuroscience, 2022)

System: membrane-bound BDNF
Test: membrane-bound BDNF, non-permeabilizing immunofluorescence in differentiated SH-SY5Y cells
Assay type: cell-based, human
Details: 1 h
Text: The possibility of mimicking the function of the full-length BDNF protein by using a linear peptide fragment encompassing the first 12 amino acids of the mature NT N-terminal was already postulated.[31] Here, we named this sequence as m-bdnf (Figure 1A) and performed a systematic comparison between the performance of the full-length human BDNF produced recombinantly in Escherichia coli([32]) and (i) m-bdnf, (ii) a dimeric peptide displaying two copies of the m-bdnf sequence covalently bound by a disulfide bridge (d-bdnf), and (iii) a monomeric peptide displaying the scrambled sequence of m-bdnf (s-bdnf). We first investigated the ability of these peptides to activate the TrkB receptor. […] Specifically, an EC50 concentration of BDNF (1 nM) or of d-bdnf (10 μM) was used in combination with the increasing concentration of d-bdnf and BDNF, respectively, and the increase of ERK phosphorylation was assessed. […] Of note, we also performed a non-permeabilizing immunofluorescence analysis to quantify the membrane-bound BDNF in differentiated SH-SY5Y cells in the absence or presence of BDNF and d-bdnf (Figure S1C,D). […] The same increment was not observed upon treatment with the d-bdnf peptide, while instead we measured a slight (∼18%) decrease of the signal possibly due to the ability of the peptide to displace endogenous BDNF at the tested dose (10 μM). […]

Q: For “HSDPARRGELSVC-C-VSLEGRRAPDSH (disulfide) [d-bdnf]”, which “decrease of membrane-bound BDNF fluorescent signal” value (d-bdnf 10 μM) is on record?
A: ~18%

B1: brain-derived neurotrophic factor (protein, UniProt P23560 1-247, looked up)
chain: MTILFLTMVISYFGCMKAAPMKEANIRGQGGLAYPGVRTHGTLESVNGPKAGSRGLTSLADTFEHVIEELLDEDQKVRPNEENNKDADLYTSRVMLSSQVPLEPPLLFLLEEYKNYLDAANMSMRVRRHSDPARRGELSVCDSISEWVTAADKKTAVDMSGGTVTVLEKVPVSKGQLKQYFYETKCNPMGYTKEGCRGIDKRHWNSQCRTTQSYVRALTMDSKKRIGWRFIRIDTSCVCTLTIKRGR
modifications: full-length
notes: full-length human BDNF produced recombinantly in Escherichia coli
Q: For B1, which “increase of membrane-bound BDNF fluorescent signal” value (BDNF 150 ng/mL) is on record?
A: ~40%
